Data published in patent US6759234B1, “Compositions and methods for administering to humans, peptides capable of down regulating an antigen specific immune response” (Immulogic Pharmaceutical Corporation, priority 1994, dated 2004).
Ends that are not written are not given here.

Tested on: IgG and IgE antibodies to Fel d I, peptide X and peptide Y
Assay: Protocol P92-01 Phase I antibody studies and skin testing with the peptides (antigenicity)
Type: in vivo, human cat-allergic subjects
Settings: Week 8
Protocol: This Phase I, open-label, dose-escalating safety study was conducted to determine the safety of the administration of the peptide X (SEQ ID NO 1) and peptide Y (SEQ ID NO 2). The antigenicity of the components was also evaluated, as was the activity of the peptides in altering skin test sensitivity.
Safety was assessed by evaluations of clinical laboratory parameters, physical examination, antibody studies and adverse experiences. Activity was assessed by analysis of skin testing. Prick and intradermal skin testing with both affinity purified native Fel d I and the peptides were performed one week prior to, and two and six weeks following the treatment period. Sixteen patients were treated with peptides X and Y during the study. […] Adverse events recorded with the trial were typical of those seen in open label allergy studies. Patients were all cat allergic individuals in this trial and tolerated dose orders of magnitude higher than can be achieved with conventional immunotherapy.

KALPVVLENARILKNCVDAKMTEEDKE [peptide Y]
skin test reaction to the peptide in a single patient: delayed local reaction

KRDVDLFLTGTPDEYVEQVAQYKALPV [peptide X]
skin test reaction to the peptide in a single patient: substantial skin test reaction
